For data set [1], the target named is T1, aromatase (Homo sapiens, UniProt P11511).
T1 construct: suspension of human placenta microsomes as a source of aromatase enzyme; from tissue; host or cells: human placenta microsomes
T1 sequence (P11511 1-503): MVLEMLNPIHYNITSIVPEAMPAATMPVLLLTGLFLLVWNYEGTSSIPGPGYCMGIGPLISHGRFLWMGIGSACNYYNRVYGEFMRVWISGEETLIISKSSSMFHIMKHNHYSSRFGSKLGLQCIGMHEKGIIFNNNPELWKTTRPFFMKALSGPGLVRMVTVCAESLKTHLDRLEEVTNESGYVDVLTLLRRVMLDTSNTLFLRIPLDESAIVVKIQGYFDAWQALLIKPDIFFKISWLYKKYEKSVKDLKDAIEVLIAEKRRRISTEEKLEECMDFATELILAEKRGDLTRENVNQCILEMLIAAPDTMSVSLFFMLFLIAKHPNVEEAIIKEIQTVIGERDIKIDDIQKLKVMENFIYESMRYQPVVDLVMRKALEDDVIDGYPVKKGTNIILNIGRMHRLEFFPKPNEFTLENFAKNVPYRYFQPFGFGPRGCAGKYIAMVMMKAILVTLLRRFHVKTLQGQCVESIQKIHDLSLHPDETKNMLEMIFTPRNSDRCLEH
Put plainly: Inhibition of aromatase activity, placenta microsomes, substrate androstenedione 10 nM (Example 3). The following applies: 10 min. In kind it is biochemical. The procedure:
Inhibitor tests were carried out with a suspension of human placenta microsomes as a source of aromatase enzyme. The substrate used in these competitive inhibition tests was androstenedione.
Experimental conditions for enzyme inhibition
enzyme source: placenta microsomes
substrate: androstenedione (10 nM)
tracer: ^3 H-androstenedione
Co-substrate: NADPH-regenerating system
The substrate, ^3 H-androstenedione was incubated in the presence of aromatase enzyme with and without the acid inhibitor. The aromatization of androstenedione to estradiol was measured by the release of ^3 H2 O in the process of aromatization. Aromatase activity in the presence of 9-hydroxy-10(trans)-12(cis)-octadecadienoic acid was compared with that of a control group without this inhibiting additive. Aromatase activity is shown as percent of reaction in table 2.

Data set [2] can be described thus: Storage stability of the prepared acid. In kind it is physicochemical.
The nature of data set [3]: Effect in the treatment of estrogen-dependent diseases, keto form compared with hydroxy compound.
Data set [4] addresses T1, aromatase. Put plainly: Inhibition of aromatase activity, placenta microsomes, substrate androstenedione 100 nM (Example 4). In kind it is biochemical.

This is an account of results in patent US5102912A, “Hydroxyoctadecadienic acid for the treatment of estrogen-dependent disease” (Kanoldt Arzneimittel GmbH, priority 1990, dated 1992).

For `CCCCC/C=C\C=C\C(O)CCCCCCCC(=O)O` (stereo not drawn) [9-hydroxy-10(trans)-12(cis)-octadecadienic acid], at aromatase [1] (inhibitor 1 mg/l, without inhibitor 100 ± 9.1, read-out: Aromatase Activity (% reaction) with inhibitor), the activity at 1 µg/mL came out at 94.4 ± 1.2%. Besides, the activity at 10 µg/mL at aromatase [1] (inhibitor 10 mg/l, without inhibitor 100 ± 8.1, read-out: Aromatase Activity (% reaction) with inhibitor) came out at 53.8 ± 3.8%. The activity at 100 µg/mL on aromatase [1] (inhibitor 100 mg/l, without inhibitor 100 ± 5.5, read-out: Aromatase Activity (% reaction) with inhibitor) amounted to 16.2 ± 3.2%. Further, the storage stability entry in data set [2] (even at minus 20° C) was “only storable to a limited extent even at minus 20 °C”.
Consider `CCCCC/C=C\C=C\C(=O)CCCCCCCC(=O)O` [9-oxo-10(trans)-12(cis)-octadecadienic acid], for which the “stability compared with the product of Example 1” value in data set [2] is reported as “equally unstable as the product of Example 1”. The “effect by comparison with the hydroxy compound” value in data set [3] is reported as 10 fold. Besides, the activity at 1 µg/mL on aromatase [4] (10 min, inhibitor 1 mg/l, androstenedione 100 nM, 10 minutes, average value ± S.D. (n = 3), without inhibitor 100 ± 9.1, read-out: Aromatase activity (% reaction) with inhibitor) came out at 58.3 ± 3.6%. The activity at 10 µg/mL on aromatase [4] (10 min, inhibitor 10 mg/l, androstenedione 100 nM, 10 minutes, average value ± S.D. (n = 3), without inhibitor 100 ± 8.1, read-out: Aromatase activity (% reaction) with inhibitor) was 19.3 ± 3.4%. Further, the activity at 100 µg/mL on aromatase [4] (10 min, inhibitor 100 mg/l, androstenedione 100 nM, 10 minutes, average value ± S.D. (n = 3), without inhibitor 100 ± 5.5, read-out: Aromatase activity (% reaction) with inhibitor) turned out to be 6.2 ± 2.9%. For the same compound, at aromatase [4] (Example 4, table 4), the “inhibition of aromatase (in words)” value is recorded as “stronger aromatase inhibiting effect”. The “aromatase inhibiting effect relative to the acid in hydroxy form” value on aromatase [4] (from tables 2 and 4, displacement with respect to the concentration of the inhibitor) was “about 10 times stronger”.
